Experimental data from patent US20220009920A1 (GB005, Inc., priority 2020, published 2022).

Legend:
Test in all cases: Large panel kinase profiling
Format in all cases: biochemical
Conditions in all cases: 1 μM test article, 1 mM ATP
[1] = target: T1, FLT1 (Homo sapiens, UniProt P17948)
T1 construct: AssayQuant Technologies, Inc. (service provider)
How it was run: (§1)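 Profiling across the panel relied on the PhosphoSens CSox-Sensor format. A compound concentration of 1 μM and an ATP level of 1 mM were used throughout.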

[2] = target: T2, DYRK4 (Homo sapiens, UniProt Q9NR20)
T2 construct: AssayQuant Technologies, Inc. (service laboratory)
T2 sequence (Q9NR20 1-520): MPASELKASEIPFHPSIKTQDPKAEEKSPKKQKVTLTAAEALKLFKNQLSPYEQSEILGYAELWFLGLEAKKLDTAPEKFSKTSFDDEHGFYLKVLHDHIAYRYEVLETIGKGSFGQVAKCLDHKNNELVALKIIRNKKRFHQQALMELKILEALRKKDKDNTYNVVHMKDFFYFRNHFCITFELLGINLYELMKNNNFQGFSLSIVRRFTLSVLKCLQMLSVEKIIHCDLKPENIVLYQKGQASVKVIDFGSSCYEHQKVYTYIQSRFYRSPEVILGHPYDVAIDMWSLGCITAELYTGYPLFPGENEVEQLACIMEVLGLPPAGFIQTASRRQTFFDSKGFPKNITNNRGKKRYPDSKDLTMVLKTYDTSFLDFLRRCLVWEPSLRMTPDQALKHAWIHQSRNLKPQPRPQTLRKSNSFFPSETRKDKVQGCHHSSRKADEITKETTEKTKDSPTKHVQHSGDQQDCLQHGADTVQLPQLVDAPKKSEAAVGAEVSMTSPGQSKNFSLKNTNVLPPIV
How it was run: as §1

[3] = target: T3, CDK1/E1 (Homo sapiens, UniProt P06493)
T3 construct: AssayQuant Technologies, Inc. (ran the panel)
T3 sequence (P06493 whole entry, species assumed): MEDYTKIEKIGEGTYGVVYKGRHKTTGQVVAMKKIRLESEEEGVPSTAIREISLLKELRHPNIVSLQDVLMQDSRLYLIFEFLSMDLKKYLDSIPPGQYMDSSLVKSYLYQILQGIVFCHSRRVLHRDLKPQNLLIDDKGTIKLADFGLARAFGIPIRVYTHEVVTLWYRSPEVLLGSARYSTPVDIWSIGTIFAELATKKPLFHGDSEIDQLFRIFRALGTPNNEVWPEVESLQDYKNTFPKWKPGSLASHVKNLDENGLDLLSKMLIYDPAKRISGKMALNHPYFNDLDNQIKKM
T3 sequence (P24864 whole entry partner, species assumed): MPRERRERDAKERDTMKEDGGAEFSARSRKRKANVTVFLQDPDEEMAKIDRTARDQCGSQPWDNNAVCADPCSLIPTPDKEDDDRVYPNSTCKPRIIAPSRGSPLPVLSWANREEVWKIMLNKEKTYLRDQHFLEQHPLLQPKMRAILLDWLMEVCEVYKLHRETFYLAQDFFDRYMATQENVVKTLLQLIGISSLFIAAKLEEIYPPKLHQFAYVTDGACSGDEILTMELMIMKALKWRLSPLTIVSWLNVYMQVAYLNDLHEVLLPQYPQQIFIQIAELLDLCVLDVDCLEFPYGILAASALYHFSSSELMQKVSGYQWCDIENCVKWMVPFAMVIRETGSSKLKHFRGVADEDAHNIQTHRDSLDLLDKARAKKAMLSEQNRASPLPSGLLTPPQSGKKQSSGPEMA
How it was run: as §1

[4] = target: T4, EPHB1 (Homo sapiens, UniProt P54762)
T4 sequence (P54762 18-984): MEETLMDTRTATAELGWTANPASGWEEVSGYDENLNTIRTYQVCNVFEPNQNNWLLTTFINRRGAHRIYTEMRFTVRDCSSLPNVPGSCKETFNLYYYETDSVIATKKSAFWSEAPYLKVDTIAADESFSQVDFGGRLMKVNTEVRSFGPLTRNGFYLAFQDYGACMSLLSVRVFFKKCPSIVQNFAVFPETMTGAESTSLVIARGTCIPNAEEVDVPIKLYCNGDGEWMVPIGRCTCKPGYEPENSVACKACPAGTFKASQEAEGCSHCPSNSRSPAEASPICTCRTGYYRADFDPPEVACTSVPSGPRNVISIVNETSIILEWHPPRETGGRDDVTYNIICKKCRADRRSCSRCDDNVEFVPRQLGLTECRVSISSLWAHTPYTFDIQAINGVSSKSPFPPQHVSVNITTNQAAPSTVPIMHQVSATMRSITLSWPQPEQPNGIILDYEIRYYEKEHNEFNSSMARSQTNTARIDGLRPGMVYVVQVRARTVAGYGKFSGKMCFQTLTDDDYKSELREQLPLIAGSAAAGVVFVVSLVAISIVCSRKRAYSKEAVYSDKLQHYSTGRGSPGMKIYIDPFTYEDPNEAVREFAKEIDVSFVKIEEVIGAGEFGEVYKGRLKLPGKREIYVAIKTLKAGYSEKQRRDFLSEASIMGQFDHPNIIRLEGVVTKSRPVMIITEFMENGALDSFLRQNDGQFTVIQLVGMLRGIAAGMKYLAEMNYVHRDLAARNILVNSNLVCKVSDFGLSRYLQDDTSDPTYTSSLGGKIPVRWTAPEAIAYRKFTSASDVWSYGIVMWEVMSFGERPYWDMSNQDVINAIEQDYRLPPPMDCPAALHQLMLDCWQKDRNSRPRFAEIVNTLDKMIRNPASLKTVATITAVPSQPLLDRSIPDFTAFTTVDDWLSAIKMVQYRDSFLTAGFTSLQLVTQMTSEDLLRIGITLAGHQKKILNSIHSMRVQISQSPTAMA
How it was run: as §1

[5] = target: T5, EPHA3 (Homo sapiens, UniProt P29320)
T5 sequence (P29320 21-983): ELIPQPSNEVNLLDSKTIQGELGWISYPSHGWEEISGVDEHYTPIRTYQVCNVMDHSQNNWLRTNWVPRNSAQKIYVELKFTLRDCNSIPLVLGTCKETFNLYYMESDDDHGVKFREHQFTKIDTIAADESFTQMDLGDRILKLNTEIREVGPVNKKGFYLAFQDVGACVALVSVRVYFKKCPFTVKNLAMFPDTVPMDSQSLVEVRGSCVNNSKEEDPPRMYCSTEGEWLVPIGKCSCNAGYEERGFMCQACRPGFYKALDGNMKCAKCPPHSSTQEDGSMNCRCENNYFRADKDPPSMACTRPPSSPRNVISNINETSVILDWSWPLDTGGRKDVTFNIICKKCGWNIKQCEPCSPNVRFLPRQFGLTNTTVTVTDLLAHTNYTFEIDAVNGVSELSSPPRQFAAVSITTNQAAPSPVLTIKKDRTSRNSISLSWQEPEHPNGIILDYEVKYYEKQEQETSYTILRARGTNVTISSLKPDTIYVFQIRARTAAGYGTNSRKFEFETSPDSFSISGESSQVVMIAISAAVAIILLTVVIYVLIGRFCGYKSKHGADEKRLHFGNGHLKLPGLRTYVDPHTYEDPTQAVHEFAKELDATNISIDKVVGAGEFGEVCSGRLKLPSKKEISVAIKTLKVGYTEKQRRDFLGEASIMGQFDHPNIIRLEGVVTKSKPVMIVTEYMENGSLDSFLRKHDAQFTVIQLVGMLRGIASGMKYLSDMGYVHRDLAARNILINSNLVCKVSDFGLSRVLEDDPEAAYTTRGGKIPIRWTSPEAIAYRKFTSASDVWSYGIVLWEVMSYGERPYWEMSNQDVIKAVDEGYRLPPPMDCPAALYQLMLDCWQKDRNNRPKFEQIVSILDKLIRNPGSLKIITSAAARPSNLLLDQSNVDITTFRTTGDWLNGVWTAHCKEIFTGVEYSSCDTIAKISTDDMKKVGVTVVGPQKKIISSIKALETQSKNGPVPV
How it was run: as §1

T1 sequence (P17948 27-1338, species assumed): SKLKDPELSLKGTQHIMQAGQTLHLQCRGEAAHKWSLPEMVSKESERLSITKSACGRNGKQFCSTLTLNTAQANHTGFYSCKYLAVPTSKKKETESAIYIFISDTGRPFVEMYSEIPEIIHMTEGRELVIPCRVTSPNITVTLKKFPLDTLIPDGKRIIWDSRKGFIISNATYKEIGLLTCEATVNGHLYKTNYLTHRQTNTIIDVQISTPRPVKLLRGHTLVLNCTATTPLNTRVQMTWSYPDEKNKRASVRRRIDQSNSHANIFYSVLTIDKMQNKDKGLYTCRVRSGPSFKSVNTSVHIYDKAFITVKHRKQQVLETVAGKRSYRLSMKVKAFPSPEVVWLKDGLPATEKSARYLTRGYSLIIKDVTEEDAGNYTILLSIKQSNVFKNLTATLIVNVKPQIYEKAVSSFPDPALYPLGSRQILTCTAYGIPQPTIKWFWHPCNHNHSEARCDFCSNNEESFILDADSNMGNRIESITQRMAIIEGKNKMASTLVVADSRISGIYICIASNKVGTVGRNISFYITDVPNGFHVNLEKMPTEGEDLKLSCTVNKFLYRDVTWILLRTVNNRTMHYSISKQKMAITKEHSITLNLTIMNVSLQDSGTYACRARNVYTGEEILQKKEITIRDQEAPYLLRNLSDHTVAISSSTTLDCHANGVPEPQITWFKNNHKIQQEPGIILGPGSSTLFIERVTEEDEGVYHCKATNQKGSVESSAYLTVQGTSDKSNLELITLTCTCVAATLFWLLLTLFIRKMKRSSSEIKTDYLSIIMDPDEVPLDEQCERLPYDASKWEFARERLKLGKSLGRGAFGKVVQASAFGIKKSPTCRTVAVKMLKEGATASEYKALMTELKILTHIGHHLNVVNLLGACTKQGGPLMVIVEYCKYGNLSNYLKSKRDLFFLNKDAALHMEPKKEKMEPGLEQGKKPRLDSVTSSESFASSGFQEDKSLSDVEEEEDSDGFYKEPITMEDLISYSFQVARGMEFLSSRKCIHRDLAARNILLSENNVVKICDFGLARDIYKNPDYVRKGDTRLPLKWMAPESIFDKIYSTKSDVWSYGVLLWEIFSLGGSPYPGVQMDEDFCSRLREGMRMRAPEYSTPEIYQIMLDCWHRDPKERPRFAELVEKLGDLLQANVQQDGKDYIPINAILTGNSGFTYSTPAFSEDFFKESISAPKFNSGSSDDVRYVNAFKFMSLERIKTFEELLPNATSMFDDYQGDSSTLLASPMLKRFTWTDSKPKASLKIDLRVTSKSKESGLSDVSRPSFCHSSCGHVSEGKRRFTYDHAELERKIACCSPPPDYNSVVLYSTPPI

SMILES | inhibition at 1 µM [1] | inhibition at 1 µM [2] | inhibition at 1 µM [3] | inhibition at 1 µM [4] | inhibition at 1 µM [5]
C=CC(=O)N1CCCC(c2c(F)cc(C(N)=O)c3[nH]c4c(c23)CCCCC4)C1 (single isomer, unassigned) [Compound 5-6] | 12.1% | 23.2% | -3.6% | 14.5% | 0.7%
C=CC(=O)N1CCC[C@@H](c2c(F)cc(C(N)=O)c3[nH]c4c(c23)CCC4)C1 [Compound 10-2, (S)-8-(1-acryloylpiperidin-3-yl)-7-fluoro-1,2,3,4-tetrahydrocyclo-penta[b]indole-5-carboxamide] | 8.6% | -6.6% | -10.6% | -3.1% | 1.6%
C=CC(=O)N1CCC[C@@H](c2c(F)cc(C(N)=O)c3[nH]c4c(c23)CC2(CC4)CC2)C1 [Compound 6-2, (S)-5-(1-acryloylpiperidin-3-yl)-6-fluoro-1,2,4,9-tetrahydrospiro[carbazole-3,1′-cyclopropane]-8-carboxamide] | 20.7% | 15.4% | -7% | 12.4% | 10.1%
